According to patent publication US6642365B1, “Anti-(retro)viral conjugates of saccharides and acetamidino or guanidino compounds” (Yeda Research and Development Co. Ltd., priority 2001, dated 2003):

Experiments:
[1] = test system: MT-2 cells as well as PMBC lines ETH and IS; conditions: ratio CC50/EC50
Experimental: The cells were infected by incubation with different titers of the HIV-1 strains for 2 hrs at 37° C. in the presence or absence of the AAC of the invention. Then the cells were washed from the virus by centrifugation at 400 g and the supernatants were discarded. The cells were resuspended in culture medium, supplemented with different concentrations of the test compounds. The cells were allowed to proliferate for 5 days, the number of viable cells was quantified by a tetrazolium-based colorimetric method (CellTiter 96® AQueous One solution Cell Proliferation Assay, Promega). Anti-HIV activity in P4-CCR5 MAGI cells was done as follows: cells (1×10^5/ml) were infected with 10 ng/ml of p24 antigen of HIV-1 Ba-L in the presence of varying concentrations of the test compound. 24 hours post infection, cells were washed twice with PBS and resuspended in the medium containing the appropriate drug concentration. Five days after infection the cells were washed with PBS and evaluated for β-galactosidase activity.

HIV-1 2D = format: cell-based
Experimental: (§1) T-tropic HIV-1 laboratory strains IIIb, 2D as well as AZT-resistant and UC781-resistant strains were utilized in this study, along with clinical isolate (clade C). HIV-1 clinical isolate, resistant to AZT is a generous gift from Dr. Mark A. Wainberg, McGill AIDS Center, McGill University, Montreal, Canada.
(§2) MT-2 or MT-4 cells were cultured in RPMI 1640 supplemented with 10% fetal calf serum (FCS), 0.2 mM glutamine and penicilline/streptomycin/nistatin mixture. The cells were propagated in 96-well tissue culture plates at the density of 5×10^4 cells per well. Peripheral mononuclear blood cells (PMBC) were separated from whole blood samples by centrifugation in Ficoll gradient for 10 min at 400 g. PMBC were cultured in the same medium in 24-well tissue culture plates at the density of about 10^6 cells per well.

[2] = test system: HIV-1 clinical isolate (clade C); assay: Anti-HIV assay, syncytium formation and tetrazolium colorimetric assay; format: cell-based
Experimental: as §1, §2

[3] = test system: HIV-1 clinical isolate, resistant to AZT; assay: as above; format: cell-based; conditions: average of two independent experiments in duplicates; read-out: EC50 HIV-1 AZTres
Experimental: as §1, §2

HIV-1 IIIB = assay: as above; format: cell-based; conditions: range over IIIb, 2D, AZT resistant, UC781 resistant and clade C HIV-1
Experimental: as §1, §2

[4] = average of two independent experiments in duplicates

In the case of “Triargininamido-gentamicin conjugate [R3G]”, the TI50 [1] is reported as 50-85, the “antiviral effect in the presence of AZT” value (HIV-1 2D; HIV-1 2D and clade C) is reported as “additive” and the EC50 (HIV-1 2D; [4]) is reported as 10 µM. The “inhibition of virus growth” value ([2]; MT-2 cells infected in presence of 20 μM R3G or 10 μM NeoR, then 3 days without AAC) was 30%, the EC50 [2, 4] was 6 µM and the EC50 [3] was 8 µM. For the same substance, the EC50 (HIV-1 IIIB) was 6 to 10 µM.
